Columns and labels:
[1] = Acute toxicity in the mouse by the I.P. route; format: in vivo; settings: for LD50: read-out: DL-50 (lethal dose involving the death of half of the animals)
From the text: The acute toxicity was studied in the mouse by the I.P. route. It is expressed in the form of DL-50 (lethal dose involving the death of half of the animals) or DL-0 (maximum non-lethal dose).

[2] = Anti-ulcer activity: ulcer caused by aspirin; format: in vivo, rat (male Wistar); settings: aspirin 192 mg/kg per os, standardised to control batch and cimetidine (index 1)
Procedure: The experiment is carried out on male Wistar rats of 180 to 200 g. The products to be tested are administered at 100 mg/kg I.P. (unless indicated to the contrary in Table IV).
At t=0, the rats are made to fast and a first administration of the product to be tested is made.
At t=18 hours, 2 ml of an ulcer-forming suspension with 192 mg of aspirin/kg are administered per os then a second administration of the product to be tested is made.
At t=22 hours, the animals are sacrificed and the ulcers are marked as follows: small point-like ulcers: mark 1 more extensive ulcers: mark 3 highly extensive or very deep ulcers: mark 9
This marking is standardised with respect to a control batch and to cimetidine (a reference product) to which index 1 has been allocated.

[3] = Anti-hypoxic activity: survival to hypoxia (nitrogen-oxygen 95:5); format: in vivo, mouse (Swiss male); settings: I.P., 1/10th of LD-50 or 100 mg/kg when LD-0 ≥ 800 mg/kg; up to 15 minutes; mouse
Procedure: The experiment is carried out on batches of 20 Swiss male mice weighing from 20 to 30 g. Each product to be tested is administered to the mice by intraperitoneal route at a dose corresponding to 1/10th of the LD-50 or at a dose of 100 mg/kg when the LD-0 is higher than or equal to 800 mg/kg. The mice are placed in a nitrogen-oxygen (95:5) v/v atmosphere. The survival time of the mice is then measured up to 15 minutes maximum.
The results shown in Table VII are expressed in percentage of survival with respect to a non-treated control batch and a batch treated with an anti-hypoxic reference product [specialty known under the trade name of "Duxil" and which is constituted by a mixture of Almitrine bis-methanesulfonate and of Raubasine in the weight ratio 3:1], the anti-hypoxic reference product being administered at the dose of 18 mg/kg I.P.

SMILES	Survival (survival percentage to hypoxic aggression) [3]	Ulcer index ([2]; 100 mg/kg I.P.)	DL-0 (maximum non-lethal dose) ([1]; I.P.) [mg/kg IP]	further results
Cc1ccc(C(O)c2cccc(O[C@@H]3OC[C@@H](O)[C@H](O)[C@H]3O)c2)cc1 (single isomer, unassigned) [Example 107]	–	–	–	DL-50 (lethal dose involving the death of half of the animals) ([1]; I.P.): 550 mg/kg IP
O=C(c1ccc(O[C@@H]2OC[C@@H](O)[C@H](O)[C@H]2O)cc1)c1ccc(C(F)(F)F)cc1 [Example 11]	++ (from 50 to 79%)	–	–	DL-0 (maximum non-lethal dose) ([1]; in vivo, ip): > 800 mg/kg IP; Ulcer index ([2]; 200 mg/kg P.O.): 0
O=C(c1ccc(O[C@@H]2OC[C@@H](O)[C@H](O)[C@H]2O)cc1)c1cccc(C(F)(F)F)c1 [Example 13]	++ (from 50 to 79%)	0.46	–	LD50 ([1]; in vivo, ip, I.P.): 170 mg/kg
COc1cccc(C(=O)c2ccc(O[C@@H]3OC[C@@H](O)[C@H](O)[C@H]3O)cc2)c1 [Example 16]	+ (from 30 to 49%)	0.73	–	DL-0 (maximum non-lethal dose) ([1]; in vivo, ip): > 800 mg/kg IP
O=C(c1ccc(O[C@@H]2O[C@H](CO)[C@@H](O)[C@H](O)[C@H]2O)cc1)c1ccc([N+](=O)[O-])cc1 [Example 19]	++ (from 50 to 79%)	0.74	–	DL-0 (maximum non-lethal dose) ([1]; in vivo, ip): > 800 mg/kg IP
O=C(c1ccc(O[C@@H]2O[C@H](CO)[C@H](O)[C@H](O)[C@H]2O)cc1)c1ccc([N+](=O)[O-])cc1 [Example 20]	–	0.62	> 800	–
Cc1cc(C(=O)c2ccc(Cl)cc2)cc(C)c1O[C@@H]1OC[C@@H](O)[C@H](O)[C@H]1O [Example 22]	–	1.46	–	LD50 ([1]; in vivo, ip, I.P.): 500 mg/kg
Cc1cc(C(=O)c2ccccc2)cc([N+](=O)[O-])c1O[C@@H]1OC[C@@H](O)[C@H](O)[C@H]1O [Example 25]	–	0.54	–	LD50 ([1]; in vivo, ip, I.P.): 330 mg/kg
CC(=O)N[C@H]1[C@H](Oc2c(C)cc(C(=O)c3ccccc3C)cc2C)O[C@H](CO)[C@@H](O)[C@@H]1O [Example 26]	+ (from 30 to 49%)	0.60	–	LD50 ([1]; in vivo, ip, I.P.): 700 mg/kg
Cc1cc(O)ccc1C(=O)c1cc(C)c(O[C@@H]2O[C@H](CO)[C@@H](O)[C@H](O)[C@H]2O)c(C)c1 [Example 27]	–	0.42	> 800	–
Cc1cc(C(=O)c2ccc(Cl)cc2)ccc1O[C@@H]1OC[C@@H](O)[C@H](O)[C@H]1O [Example 28]	++ (from 50 to 79%)	–	–	DL-0 (maximum non-lethal dose) ([1]; in vivo, ip): > 800 mg/kg IP
O=C(c1ccc(O[C@@H]2OC[C@@H](O)[C@H](O)[C@H]2O)cc1)c1ccc(Cl)cc1Cl [Example 31]	–	1.04	> 800	–
Cc1cc(C)c(C(=O)c2ccc(O[C@@H]3OC[C@@H](O)[C@H](O)[C@H]3O)cc2)c(C)c1 [Example 32]	–	0.54	> 800	–
COc1cc(C(=O)c2ccc(O[C@@H]3OC[C@@H](O)[C@H](O)[C@H]3O)cc2)cc(OC)c1OC [Example 33]	–	0.46	> 800	–
CC(=O)N[C@H]1[C@H](Oc2c(C)cc(C(=O)c3c(C)cccc3C)cc2C)O[C@H](CO)[C@@H](O)[C@@H]1O [Example 37]	–	1.02	–	LD50 ([1]; in vivo, ip, I.P.): 600 mg/kg
CC(=O)O[C@@H]1[C@@H](OC(C)=O)[C@H](Oc2ccc(C(=O)c3ccc([N+](=O)[O-])cc3)cc2)OC[C@H]1OC(C)=O [Example 41, [4-(4-nitrobenzoyl)-phenyl]-2,3,4-tri-(O-acetyl)-β-D-xylopyranoside]	+++ (higher than or equal to 80%)	0.40	–	DL-0 (maximum non-lethal dose) ([1]; in vivo, ip): > 800 mg/kg IP
CC(=O)O[C@@H]1[C@@H](OC(C)=O)[C@H](Oc2ccc(C(=O)c3ccc(N=C=S)cc3)cc2)OC[C@H]1OC(C)=O [Example 42]	–	–	> 800	–
O=C(c1ccc(Cl)cc1)c1cccc(O[C@@H]2OC[C@@H](O)[C@H](O)[C@H]2O)c1 [Example 48]	–	0.75	–	LD50 ([1]; in vivo, ip, I.P.): 220 mg/kg
Cc1ccc(C(=O)c2cccc(O[C@@H]3OC[C@@H](O)[C@H](O)[C@H]3O)c2)cc1 [Example 49]	–	1.21	> 800	–
Cc1ccccc1C(=O)c1cccc(O[C@@H]2OC[C@@H](O)[C@H](O)[C@H]2O)c1 [Example 52]	–	–	> 800	–

SMILES	Survival (survival percentage to hypoxic aggression) [3]	Ulcer index ([2]; 100 mg/kg I.P.)	DL-0 (maximum non-lethal dose) ([1]; I.P.) [mg/kg IP]	further results
O=C(c1ccc(C(F)(F)F)cc1)c1cccc(O[C@@H]2OC[C@@H](O)[C@H](O)[C@H]2O)c1 [Example 53, [3-(4-trifluoromethylbenzoyl)-phenyl]-β-D-xylopyranoside]	–	0.64	–	LD50 ([1]; in vivo, ip, I.P.): 550 mg/kg
COC(=S)Nc1ccc(C(=O)c2ccc(O[C@@H]3OC[C@@H](O)[C@H](O)[C@H]3O)cc2)cc1 [Example 65]	–	–	> 800	–
CC(=O)N[C@H]1[C@H](Oc2c(C)cc(C(=O)c3ccccc3C)cc2C)O[C@H](COS(=O)(=O)O)[C@@H](OS(=O)(=O)O)[C@@H]1OS(=O)(=O)O [Example 68]	–	–	> 800	–
O=C(c1ccc(O[C@@H]2OC[C@@H](OS(=O)(=O)O)[C@H](OS(=O)(=O)O)[C@H]2OS(=O)(=O)O)cc1)c1cccc([N+](=O)[O-])c1 [Example 72]	–	0.47	–	LD50 ([1]; in vivo, ip, I.P.): 650 mg/kg
CC(=O)O[C@@H]1[C@@H](OC(C)=O)[C@H](Oc2ccc(C(=O)c3c(C)cc(C)cc3C)cc2)OC[C@H]1OC(C)=O [Example 73]	–	0.52	> 800	–
CC(=O)O[C@@H]1[C@@H](OC(C)=O)[C@H](Oc2ccc(C(=O)c3ccc(Cl)cc3Cl)cc2)OC[C@H]1OC(C)=O [Example 74]	–	0.91	> 800	–
CC(=O)O[C@@H]1[C@@H](OC(C)=O)[C@H](Oc2ccc(C(=O)c3ccccc3[N+](=O)[O-])cc2)OC[C@H]1OC(C)=O [Example 78]	–	–	> 800	–
CC(=O)O[C@@H]1[C@@H](OC(C)=O)[C@H](Oc2ccc(C(=O)c3cccc([N+](=O)[O-])c3)cc2)OC[C@H]1OC(C)=O [Example 80]	–	1.00	> 800	–
CC(=O)O[C@@H]1[C@@H](OC(C)=O)[C@H](Oc2cccc(C(=O)c3ccc(Cl)cc3)c2)OC[C@H]1OC(C)=O [Example 82]	–	–	> 800	–
CC(=O)O[C@@H]1[C@@H](OC(C)=O)[C@H](Oc2cccc(C(=O)c3ccccc3)c2)OC[C@H]1OC(C)=O [Example 83]	++ (from 50 to 79%)	–	–	DL-0 (maximum non-lethal dose) ([1]; in vivo, ip): > 800 mg/kg IP
COc1cc(C(=O)c2ccc(O[C@@H]3OC[C@@H](OC(C)=O)[C@H](OC(C)=O)[C@H]3OC(C)=O)cc2)cc(OC)c1O [Example 84]	–	–	> 800	–
Cc1ccc(C(O)c2ccc(O[C@@H]3OC[C@@H](O)[C@H](O)[C@H]3O)cc2)cc1 (stereo partly shown) [Example 90]	–	0.57	> 800	–
OC(c1ccc(O[C@@H]2OC[C@@H](O)[C@H](O)[C@H]2O)cc1)c1cccc(C(F)(F)F)c1 (stereo partly shown) [Example 93]	–	–	> 800	–
OC(c1ccc(Br)cc1)c1ccc(O[C@@H]2OC[C@@H](O)[C@H](O)[C@H]2O)cc1 (stereo partly shown) [Example 95]	–	0.52	> 800	–
CC(=O)N[C@H]1[C@H](Oc2ccc(C(=O)c3ccccc3Cl)cc2)O[C@H](CO)[C@@H](O)[C@@H]1O [Example 120]	+++ (higher than or equal to 80%)	–	–	DL-0 (maximum non-lethal dose) ([1]; in vivo, ip): > 800 mg/kg IP
O=C(c1ccc(Cl)cc1)c1ccc(O[C@@H]2O[C@H](CO)[C@@H](O)[C@H](O)[C@H]2O)cc1 [Example 124]	+ (from 30 to 49%)	–	–	DL-0 (maximum non-lethal dose) ([1]; in vivo, ip): > 800 mg/kg IP
O=C(c1ccccc1)c1ccc(O[C@@H]2O[C@H](CO)[C@@H](O)[C@H](O)[C@H]2O)cc1 [Example 126]	+ (from 30 to 49%)	–	–	DL-0 (maximum non-lethal dose) ([1]; in vivo, ip): > 800 mg/kg IP
Cc1ccc(C(=O)c2ccc(O[C@@H]3O[C@H](CO)[C@@H](O)[C@H](O)[C@H]3O)cc2)cc1 [Example 127]	++ (from 50 to 79%)	–	–	LD50 ([1]; in vivo, ip, I.P.): 700 mg/kg
CC(=O)N[C@H]1[C@H](Oc2ccc(C(O)c3ccc(C)cc3)cc2)O[C@H](CO)[C@@H](O)[C@@H]1O (stereo partly shown) [Example 128]	++ (from 50 to 79%)	–	–	DL-0 (maximum non-lethal dose) ([1]; in vivo, ip): > 800 mg/kg IP
O=[N+]([O-])c1ccc(C(O)c2ccc(O[C@@H]3O[C@H](CO)[C@@H](O)[C@H](O)[C@H]3O)cc2)cc1 (stereo partly shown) [Example 129]	–	–	> 800	–
